# System: 422866-222-R5-J1-PDC spheroids with HUVEC/MSC, viability
# Assay: Anticancer human tumor 422866-222-R5-J1-PDC patient-derived pancreatic adenocarcinoma cell line growth inhibition [GQUAD]
# Settings: for IC50: curve of first compound; for viability, T/C: stronger effect = lower value
# In short: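 Viability of tumor cells grown as complex spheroids with endothelial and stromal cells, exposed to drug combinations. Top concentration at or near clinical Cmax (else 10 microM), diluted in half-log increments.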
# [1] = second compound 0.0316 µM, first compound 0.0316 µM
# [2] = second compound 0.0316 µM, first compound 0.1 µM
# [3] = second compound 0.0316 µM, first compound 0.316 µM
# [4] = second compound 0.0316 µM, first compound 1 µM
# [5] = second compound 0.0316 µM, first compound 3.16 µM
# [6] = second compound 0.0316 µM, first compound 10 µM
# [7] = second compound 0.1 µM, first compound 0.0316 µM
# [8] = second compound 0.1 µM, first compound 0.1 µM
# [9] = second compound 0.1 µM, first compound 0.316 µM
# [10] = second compound 0.1 µM, first compound 1 µM
# [11] = second compound 0.1 µM, first compound 3.16 µM
# [12] = second compound 0.1 µM, first compound 10 µM
# [13] = second compound 0.316 µM, first compound 0.0316 µM
# [14] = second compound 0.316 µM, first compound 0.1 µM
# [15] = second compound 0.316 µM, first compound 0.316 µM
# [16] = second compound 0.316 µM, first compound 1 µM
# [17] = second compound 0.316 µM, first compound 3.16 µM
# [18] = second compound 0.316 µM, first compound 10 µM
# [19] = second compound 1 µM, first compound 0.0316 µM
# [20] = second compound 1 µM, first compound 0.1 µM
# [21] = second compound 1 µM, first compound 0.316 µM
# [22] = second compound 1 µM, first compound 1 µM
# [23] = second compound 1 µM, first compound 3.16 µM
# [24] = second compound 1 µM, first compound 10 µM
# [25] = second compound 3.16 µM, first compound 0.0316 µM
# [26] = second compound 3.16 µM, first compound 0.1 µM
# [27] = second compound 3.16 µM, first compound 0.316 µM
# [28] = second compound 3.16 µM, first compound 1 µM
# [29] = second compound 3.16 µM, first compound 3.16 µM
# [30] = second compound 3.16 µM, first compound 10 µM
# [31] = second compound 10 µM, first compound 0.0316 µM
# [32] = second compound 10 µM, first compound 0.1 µM
# [33] = second compound 10 µM, first compound 0.316 µM
# [34] = second compound 10 µM, first compound 1 µM
# [35] = second compound 10 µM, first compound 3.16 µM
# [36] = second compound 10 µM, first compound 10 µM
# 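Also: spheroids exposed to compounds for seven days before reading.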
# 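For viability, T/C in this document: percent viability relative to DMSO vehicle control taken as 100%.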
smiles,measurement,setting,value
CC(C)n1c(=O)n(C)c2cnc3cc(F)c(-c4ccc(OCCCN5CCCCC5)nc4)cc3c21 + Cc1cnc(CNC(=O)c2c(=O)c3ccc(N4CCCN(C)CC4)nc3n3c2sc2ccccc23)cn1,IC50,second compound 0.0316 µM,> 10000 nM
same,IC50,second compound 0.1 µM,> 10000 nM
same,IC50,second compound 0.316 µM,> 10000 nM
same,IC50,second compound 1 µM,> 10000 nM
same,IC50,second compound 3.16 µM,> 10000 nM
same,IC50,second compound 10 µM,> 10000 nM
same,"viability, T/C",[1],81.6%
same,"viability, T/C",[2],74.2%
same,"viability, T/C",[3],75%
same,"viability, T/C",[4],74%
same,"viability, T/C",[5],76.7%
same,"viability, T/C",[6],58.5%
same,"viability, T/C",[7],84.9%
same,"viability, T/C",[8],85.2%
same,"viability, T/C",[9],75%
same,"viability, T/C",[10],75.6%
same,"viability, T/C",[11],90.8%
same,"viability, T/C",[12],50.9%
same,"viability, T/C",[13],86.2%
same,"viability, T/C",[14],93%
same,"viability, T/C",[15],96%
same,"viability, T/C",[16],80.6%
same,"viability, T/C",[17],90.8%
same,"viability, T/C",[18],69.1%
same,"viability, T/C",[19],87.5%
same,"viability, T/C",[20],85.8%
same,"viability, T/C",[21],87.3%
same,"viability, T/C",[22],96%
same,"viability, T/C",[23],96.7%
same,"viability, T/C",[24],71%
same,"viability, T/C",[25],74.5%
same,"viability, T/C",[26],90.5%
same,"viability, T/C",[27],81.1%
same,"viability, T/C",[28],94.2%
same,"viability, T/C",[29],92.6%
same,"viability, T/C",[30],77.4%
same,"viability, T/C",[31],70.9%
same,"viability, T/C",[32],76.5%
same,"viability, T/C",[33],82.2%
same,"viability, T/C",[34],82.3%
same,"viability, T/C",[35],85.5%
same,"viability, T/C",[36],62.5%
CC1COCCN1c1cc(C2(O)CC3CCC(C2)O3)c2cnn(-c3ccn[nH]3)c2n1 (stereo unspecified) + Cc1cnc(CNC(=O)c2c(=O)c3ccc(N4CCCN(C)CC4)nc3n3c2sc2ccccc23)cn1,IC50,second compound 0.0316 µM,> 10000 nM
same,IC50,second compound 0.1 µM,31.6 nM
same,IC50,second compound 0.316 µM,> 10000 nM
same,IC50,second compound 1 µM,> 10000 nM
same,IC50,second compound 3.16 µM,31.6 nM
same,IC50,second compound 10 µM,31.6 nM
same,"viability, T/C",[1],64.2%
same,"viability, T/C",[2],43.7%
same,"viability, T/C",[3],43.1%
same,"viability, T/C",[4],61.8%
same,"viability, T/C",[5],80.2%
same,"viability, T/C",[6],82.9%
same,"viability, T/C",[7],67.7%
same,"viability, T/C",[8],51%
same,"viability, T/C",[9],35.3%
same,"viability, T/C",[10],49.2%
same,"viability, T/C",[11],86.7%
same,"viability, T/C",[12],90.4%
same,"viability, T/C",[13],74.2%
same,"viability, T/C",[14],61.2%
same,"viability, T/C",[15],47.8%
same,"viability, T/C",[16],47.4%
same,"viability, T/C",[17],85.5%
same,"viability, T/C",[18],81.9%
same,"viability, T/C",[19],70.1%
same,"viability, T/C",[20],63.9%
same,"viability, T/C",[21],44.1%
same,"viability, T/C",[22],53.6%
same,"viability, T/C",[23],74.9%
same,"viability, T/C",[24],85.4%
same,"viability, T/C",[25],59.7%
same,"viability, T/C",[26],63.5%
same,"viability, T/C",[27],42.2%
same,"viability, T/C",[28],46.2%
same,"viability, T/C",[29],75.2%
same,"viability, T/C",[30],76%
same,"viability, T/C",[31],61.4%
same,"viability, T/C",[32],62.4%
same,"viability, T/C",[33],45.2%
same,"viability, T/C",[34],36.8%
same,"viability, T/C",[35],68.6%
same,"viability, T/C",[36],78.5%
CCc1c2c(nc3ccc(O)cc13)-c1cc3c(c(=O)n1C2)COC(=O)[C@]3(O)CC + Cc1cnc(CNC(=O)c2c(=O)c3ccc(N4CCCN(C)CC4)nc3n3c2sc2ccccc23)cn1,IC50,second compound 0.0316 µM,1.87 nM
same,IC50,second compound 0.1 µM,15.9 nM
same,IC50,second compound 0.316 µM,25.5 nM
same,IC50,second compound 1 µM,73.2 nM
same,IC50,second compound 3.16 µM,62.2 nM
same,IC50,second compound 10 µM,106 nM
same,"viability, T/C","second compound 0.0316 µM, first compound 0.000999 µM",56.2%
same,"viability, T/C","second compound 0.0316 µM, first compound 0.00316 µM",42.2%
same,"viability, T/C","second compound 0.0316 µM, first compound 0.00999 µM",44.1%
same,"viability, T/C",[1],41.3%
same,"viability, T/C","second compound 0.0316 µM, first compound 0.0999 µM",37.7%
same,"viability, T/C",[3],24.5%
same,"viability, T/C","second compound 0.1 µM, first compound 0.000999 µM",66.8%
same,"viability, T/C","second compound 0.1 µM, first compound 0.00316 µM",59.2%
same,"viability, T/C","second compound 0.1 µM, first compound 0.00999 µM",50.4%
same,"viability, T/C",[7],46.3%
same,"viability, T/C","second compound 0.1 µM, first compound 0.0999 µM",44.9%
same,"viability, T/C",[9],34.8%
same,"viability, T/C","second compound 0.316 µM, first compound 0.000999 µM",75.4%
same,"viability, T/C","second compound 0.316 µM, first compound 0.00316 µM",63.1%
same,"viability, T/C","second compound 0.316 µM, first compound 0.00999 µM",56.4%
same,"viability, T/C",[13],47.7%
same,"viability, T/C","second compound 0.316 µM, first compound 0.0999 µM",46.6%
same,"viability, T/C",[15],30.2%
same,"viability, T/C","second compound 1 µM, first compound 0.000999 µM",73.4%
same,"viability, T/C","second compound 1 µM, first compound 0.00316 µM",76%
same,"viability, T/C","second compound 1 µM, first compound 0.00999 µM",59.6%
same,"viability, T/C",[19],59.4%
same,"viability, T/C","second compound 1 µM, first compound 0.0999 µM",49.3%
same,"viability, T/C",[21],28.2%
same,"viability, T/C","second compound 3.16 µM, first compound 0.000999 µM",70.2%
same,"viability, T/C","second compound 3.16 µM, first compound 0.00316 µM",77.4%
same,"viability, T/C","second compound 3.16 µM, first compound 0.00999 µM",62.5%
same,"viability, T/C",[25],55.7%
same,"viability, T/C","second compound 3.16 µM, first compound 0.0999 µM",46.5%
same,"viability, T/C",[27],26.3%
same,"viability, T/C","second compound 10 µM, first compound 0.000999 µM",72.5%
same,"viability, T/C","second compound 10 µM, first compound 0.00316 µM",74.8%
same,"viability, T/C","second compound 10 µM, first compound 0.00999 µM",68%
same,"viability, T/C",[31],60.2%
same,"viability, T/C","second compound 10 µM, first compound 0.0999 µM",54.9%
same,"viability, T/C",[33],22.1%

# Reference: PubChem BioAssay AID2060511 (Molecular Pharmacology Branch, DTP, NCI, 2025)
